Test [1] deals with Heat shock protein HSP 90-beta/Hsp90 co-chaperone Cdc37 (Homo sapiens) (UniProt P08238+Q16543). Description: Inhibition of His-tagged HSP90(unknown origin)/GST-tagged CDC37 (unknown origin) protein-protein interaction at 100 uM preincubated with HSP90 for 1 hrs followed by CDC37 addition and measured after 1 hrs by HTRF assay relative to control. The format is protein-complex assay.

Test [2] deals with HCT-116. Description: Antiproliferative activity against human HCT-116 cells assessed as inhibition of cell proliferation incubated for 72 hrs by MTT assay. The format is functional, cell-based. As to conditions: HCT-116, 72 h.
Test [3] can be described thus: Selectivity ratio of IC50 for antiproliferative activity against CDC37 knockout human HCT-116 cells to IC50 for antiproliferative activity against human HCT-116 cells. The format is functional.
In test [4] the test system is HCT-116. The test is described as follows: Antiproliferative activity against CDC37 knockout human HCT-116 cells assessed as inhibition of cell proliferation incubated for 72 hrs by MTT assay. Conditions: for IC50: HCT-116, 72 h. The format is functional, cell-based.

Experimental findings from ChEMBL document CHEMBL6177982, “Structural Optimization of Pyrazole Compounds as Hsp90 Regulators with Enhanced Antitumor Activity” (J Med Chem, 2025) are described below.

Usually inhibition stands for the change of the read-out against control, counted positive when it falls. Broadly, the IC50 is the midpoint of a concentration-inhibition curve.

Molecules are shown by their SMILES. Active and inactive are the calls of the source. The rule behind the calls is not given here.

`COc1cccc(-c2nn(-c3ccccc3)cc2/C=C/C(=O)N2CCCCC2C(N)=O)c1` (stereo not drawn): the inhibition in test [1] came out at 67.8%. For the same compound, the IC50 with HCT-116 [2] is 10.3 µM; in the test with HCT-116 [4], more than 50 µM. Besides, in test [3], the “Ratio IC50” value is given as more than 5.
The like results for `NC(=O)C1CCCCN1C(=O)/C=C/c1cn(-c2ccccc2)nc1-c1cccs1` (stereo not drawn) were, in that order, 59%, 8.46 µM, more than 50 µM and more than 5.
For `CCCN(CCC)C(=O)/C=C/c1cn(-c2ccccc2)nc1-c1cccnc1` the same measures were 63.6%, 9.04 µM, 46.3 µM and 5.1.
For `NC(=O)C1CCCCN1C(=O)/C=C/c1cn(-c2ccccc2)nc1-c1cncc(Br)c1` (stereo not drawn) the same measures were 72.5%, 9.18 µM, more than 100 µM and more than 10.
Compound `NC(=O)C1CCCCN1C(=O)/C=C/c1cn(-c2ccccc2)nc1-c1ccncc1` (stereo not drawn) showed an inhibition in test [1] of 70.4%. Besides, the IC50 with HCT-116 [2] is 8.11 µM; in the test with HCT-116 [4] it was more than 100 µM. Besides, the “Ratio IC50” value in test [3] was more than 10.
In the case of `NC(=O)C1CCCCN1C(=O)/C=C/c1cn(-c2ccccc2)nc1-c1cccc(Cl)c1` (stereo not drawn), the inhibition in test [1] amounted to 48.3%. Besides, the results for the IC50 in the test on HCT-116 [2] and in the test on HCT-116 [4] were 9.17 µM and 28.2 µM, respectively. For the same compound, in test [3], the “Ratio IC50” value is 3.1.
The compound `Cc1ccccc1S(=O)(=O)/C=C/c1cn(-c2ccccc2)nc1-c1cccnc1` registered an inhibition in test [1] of 87.6%. Moreover, the figures for the IC50 with HCT-116 [2] and with HCT-116 [4] were 2.55 µM and more than 50 µM, respectively. Besides, the “Ratio IC50” value in test [3] was more than 25.
For `Cc1cc(-c2nn(-c3ccccc3)cc2/C=C/C(=O)N2CCCCC2C(N)=O)ccc1Cl` (stereo not drawn) the same measures were 46.9%, 10.6 µM, 42.7 µM and 4.
For `Cc1ccccc1-c1nn(-c2ccccc2)cc1/C=C/C(=O)N1CCCCC1C(N)=O` (stereo not drawn) the same measures were 45.4%, 10.2 µM, 27.5 µM and 2.7.
In test [1], `Cc1cccc(-c2nn(-c3ccccc3)cc2/C=C/C(=O)N2CCCCC2C(N)=O)c1` (stereo not drawn) registered an inhibition of 52.9%. Moreover, the IC50 worked out at 8.12 µM in the test with HCT-116 [2] and 35 µM in the test with HCT-116 [4]. For the same compound, the “Ratio IC50” value in test [3] was found to be 4.3.
For the compound `O=S(=O)(/C=C/c1cn(-c2ccccc2)nc1-c1cccnc1)c1ccc(Cl)cc1`, the inhibition in test [1] came out at 89.2%. Moreover, the IC50 is 1.28 µM in the test on HCT-116 [2] and more than 50 µM with HCT-116 [4]. For the same compound, the “Ratio IC50” value in test [3] is on record as more than 50.
As for `O=C(/C=C/c1cn(-c2ccccc2)nc1-c1cccnc1)N1CCCCC1`, the inhibition in test [1] came out at 68.8%. The IC50 in the test on HCT-116 [2] is 8.11 µM; with HCT-116 [4], more than 50 µM. Besides, the “Ratio IC50” value in test [3] is more than 5.
In turn, `COc1cc(-c2nn(-c3ccccc3)cc2/C=C/C(=O)N2CCCCC2C(N)=O)ccc1Cl` (stereo not drawn) came in with an inhibition in test [1] of 43.3%. For the same compound, the IC50 in the test on HCT-116 [2] is 11 µM; in the test with HCT-116 [4] it was more than 50 µM. Besides, the “Ratio IC50” value in test [3] is on record as less than 5.
`NC(=O)C1CCCCN1C(=O)/C=C/c1cn(-c2ccccc2)nc1-c1cccc(C(=O)O)c1` (stereo not drawn) yielded an inhibition in test [1] of less than 20%. Also, the IC50 in the test with HCT-116 [2] and with HCT-116 [4] was more than 50 µM each time.
Regarding `NC(=O)C1CCCCN1C(=O)/C=C/c1cn(-c2ccccc2)nc1-c1cccnc1` (stereo not drawn), the inhibition in test [1] worked out at 74.4%. Moreover, the IC50 was 6.12 µM in the test on HCT-116 [2] and more than 100 µM in the test on HCT-116 [4]. In test [3], the “Ratio IC50” value is given as more than 10.
As for `O=C(/C=C/c1cn(-c2ccccc2)nc1-c1cccnc1)N1CCCCCC1`, the inhibition in test [1] was found to be 72.5%. The IC50 in the test with HCT-116 [2] was found to be 7.17 µM. The “Ratio IC50” value in test [3] is recorded as more than 20. Also, the outcome in the test with HCT-116 [4] was inactive.
With `NC(=O)C1CCCCN1C(=O)/C=C/c1cn(-c2ccccc2)nc1-c1ccco1` (stereo not drawn), in test [1], the inhibition came to 55.4%. The IC50 was 9.79 µM with HCT-116 [2] and more than 50 µM with HCT-116 [4]. In addition, the “Ratio IC50” value in test [3] is given as more than 5.
The like results for `COc1cncc(-c2nn(-c3ccccc3)cc2/C=C/C(=O)N2CCCCC2C(N)=O)c1` (stereo not drawn) were, in that order, 70.9%, 8.98 µM, more than 100 µM and more than 10.
For `CCCN(C)C(=O)/C=C/c1cn(-c2ccccc2)nc1-c1cccnc1` the same measures were 59.8%, 9.26 µM, 48.1 µM and 5.2.
For the compound `NC(=O)C1CCCCN1C(=O)/C=C/c1cn(-c2ccccc2)nc1-c1cccc([N+](=O)[O-])c1` (stereo not drawn), the inhibition in test [1] is less than 20%. In addition, the IC50 with HCT-116 [2] and in the test with HCT-116 [4] was more than 50 µM throughout.
Regarding `NC(=O)C1CCCCN1C(=O)/C=C/c1cn(-c2ccccc2)nc1-c1cccnc1Br` (stereo not drawn), the inhibition in test [1] turned out to be 42.9%. For the same compound, the values for the half-maximal inhibitory concentration (IC50) with HCT-116 [2] and in the test with HCT-116 [4] were 11.8 µM and more than 50 µM, respectively. The “Ratio IC50” value in test [3] is on record as less than 5.
In the case of `Cc1ccc(S(=O)(=O)/C=C/c2cn(-c3ccccc3)nc2-c2cccnc2)cc1`, the inhibition in test [1] was 85.8%. In addition, the values for the IC50 with HCT-116 [2] and with HCT-116 [4] were 4.77 µM and more than 50 µM, respectively. In addition, the “Ratio IC50” value in test [3] is given as more than 10.
`CN(C)C(=O)/C=C/c1cn(-c2ccccc2)nc1-c1cccnc1`: the inhibition in test [1] is 58.9%. The half-maximal inhibitory concentration (IC50) in the test on HCT-116 [2] amounted to 12.4 µM; with HCT-116 [4], 46 µM. For the same compound, the “Ratio IC50” value in test [3] is 3.7.
For `Cc1ccc(-c2nn(-c3ccccc3)cc2/C=C/C(=O)N2CCCCC2C(N)=O)cc1` (stereo not drawn) the same measures were 44.7%, 10.9 µM, 30.8 µM and 2.8.
In turn, `NC(=O)C1CCCCN1C(=O)/C=C/c1cn(-c2ccccc2)nc1-c1cncc(C(F)(F)F)c1` (stereo not drawn) registered an inhibition in test [1] of less than 20%. Further, the IC50 in the test on HCT-116 [2] and in the test on HCT-116 [4] was more than 50 µM in each case.
Regarding `O=C(/C=C/c1cn(-c2ccccc2)nc1-c1cccnc1)N1CCCC1`, the inhibition in test [1] stood at 65.9%. Further, the values for the half-inhibitory concentration (IC50) in the test on HCT-116 [2] and in the test with HCT-116 [4] were 8.48 µM and more than 50 µM, respectively. The “Ratio IC50” value in test [3] is given as more than 5.
For `NC(=O)C1CCCCN1C(=O)/C=C/c1cn(-c2ccccc2)nc1-c1cccc(N)c1` (stereo not drawn) the same measures were 68.3%, 9.11 µM, more than 50 µM and more than 5.
Take `NC(=O)C1CCCCN1C(=O)/C=C/c1cn(-c2ccccc2)nc1-c1ccc2ccccc2c1` (stereo not drawn): in test [1], the inhibition is less than 20%. Further, the IC50 with HCT-116 [2] and in the test on HCT-116 [4] was more than 50 µM throughout.
As to `COc1cc(-c2nn(-c3ccccc3)cc2/C=C/C(=O)N2CCCCC2C(N)=O)ccc1Br` (stereo not drawn), the inhibition in test [1] came to 49.2%. Moreover, the IC50 in the test on HCT-116 [2] came to 10.1 µM; with HCT-116 [4] it was 44.7 µM. In addition, the “Ratio IC50” value in test [3] is reported as 4.4.
The like results for `NC(=O)C1CCCCN1C(=O)/C=C/c1cn(-c2ccccc2)nc1-c1cccc(Br)c1` (stereo not drawn) were, in that order, 50.2%, 12.2 µM, 44.5 µM and 3.6.
Take `CCOC(=O)c1cccc(-c2nn(-c3ccccc3)cc2/C=C/C(=O)N2CCCCC2C(N)=O)c1` (stereo not drawn): the inhibition in test [1] was less than 20%. Moreover, the IC50 in the test with HCT-116 [2] and in the test with HCT-116 [4] was more than 50 µM each time.
In turn, `NC(=O)C1CCCCN1C(=O)/C=C/c1cn(-c2ccccc2)nc1-c1ccc(Cl)cc1` (stereo not drawn) returned an inhibition in test [1] of 45.4%. Moreover, the IC50 with HCT-116 [2] turned out to be 11.8 µM; with HCT-116 [4], 32.3 µM. Also, the “Ratio IC50” value in test [3] was determined as 2.7.
For `Cc1cccc(S(=O)(=O)/C=C/c2cn(-c3ccccc3)nc2-c2cccnc2)c1` the same measures were 83.2%, 4.23 µM, more than 50 µM and more than 10.
For `COc1ncccc1-c1nn(-c2ccccc2)cc1/C=C/C(=O)N1CCCCC1C(N)=O` (stereo not drawn) the same measures were 45.7%, 12.5 µM, more than 50 µM and less than 5.
The like results for `Cc1cc(-c2nn(-c3ccccc3)cc2/C=C/C(=O)N2CCCCC2C(N)=O)ccc1F` (stereo not drawn) were, in that order, 45.7%, 12.6 µM, more than 50 µM and less than 5.
Turning to `N#Cc1cccc(-c2nn(-c3ccccc3)cc2/C=C/C(=O)N2CCCCC2C(N)=O)c1` (stereo not drawn), the inhibition in test [1] was less than 20%. The IC50 in the test with HCT-116 [2] and with HCT-116 [4] was more than 50 µM in each case.
`CCN(CC)C(=O)/C=C/c1cn(-c2ccccc2)nc1-c1cccnc1` showed an inhibition in test [1] of 60.2%. In addition, the IC50 turned out to be 10.3 µM with HCT-116 [2] and 49.9 µM in the test on HCT-116 [4]. Also, the “Ratio IC50” value in test [3] was 4.8.
For `NC(=O)C1CCCCN1C(=O)/C=C/c1cn(-c2ccccc2)nc1-c1cccc(F)c1` (stereo not drawn), in test [1], the inhibition is 45.6%. For the same compound, the values for the IC50 in the test on HCT-116 [2] and in the test with HCT-116 [4] were 14.2 µM and 42.2 µM, respectively. For the same compound, the “Ratio IC50” value in test [3] stood at 3.
For `NC(=O)C1CCCCN1C(=O)/C=C/c1cn(-c2ccccc2)nc1-c1ccccn1` (stereo not drawn) the same measures were 69.5%, 7.11 µM, more than 100 µM and more than 10.
The like results for `NC(=O)C1CCCCN1C(=O)/C=C/c1cn(-c2ccccc2)nc1-c1ccccc1` (stereo not drawn) were, in that order, 46.4%, 10 µM, 28.8 µM and 2.8.
The like results for `NC(=O)C1CCCCN1C(=O)/C=C/c1cn(-c2ccccc2)nc1Cc1ccccc1` (stereo not drawn) were, in that order, 38.9%, 18.2 µM, 42.2 µM and 2.3.
